Results taken from ChEMBL document CHEMBL1158864, “Pyrrolizidine Alkaloids from Senecio r oseus and Senecio h elodes” (J Nat Prod, 1997).
Activity calls are given as the source filed them. No cut-off for these calls is given here.

Tests used:
Artemia salina = experiment: (§1) Toxicity against Artemia salina; assay type: organism-based; conditions: in vivo
[1] = as §1; assay type: organism-based; conditions: in vivo
Trichoderma viride = experiment: Antimicrobial activity against Trichoderma viride; assay type: functional, organism-based
Aspergillus niger = experiment: Antimicrobial activity against Aspergillus niger; assay type: functional, organism-based
Escherichia coli = experiment: Antimicrobial activity against Escherichia coli ATCC 10536; assay type: functional, organism-based

In the case of `C[C@@H]1C[C@]2(C)CC(=O)O[C@@H]3CCN4CC=C(COC(=O)[C@@]1(C)O2)[C@H]34` [RETROISOSENINE], the LC50 (Artemia salina) is reported as > 300 µg/mL.
In the case of `C[C@@H]1C[C@]2(C)CC(=O)O[C@@H]3CCN4CC=C(COC(=O)[C@@]1(C)O2)[C@H]34` [RETROISOSENINE HYDRCHLORIDE], the LC50 [1] is reported as > 300 µg/mL.
With `C[C@@H]1C[C@]2(C)CC(=O)O[C@@H]3CCN4CC[C@H](COC(=O)[C@@]1(C)O2)[C@H]34` [MULGEDIIFOLINE] the Activity (Trichoderma viride) was “inactive”, the LC50 [1] was > 300 µg/mL and the Activity (Aspergillus niger) was “inactive”. For the same compound, the Activity (Escherichia coli) was “inactive”.
In the case of `C[C@@H]1C[C@]2(C)CC(=O)O[C@@H]3CCN4CC=C(COC(=O)[C@@]1(C)O2)[C@H]34`, the Activity (Trichoderma viride) is reported as “inactive”, the Activity (Aspergillus niger) is reported as “inactive” and the Activity (Escherichia coli) is reported as “inactive”.
In the case of `C[C@@H]1[C@@H](O)[C@]2(C)CC(=O)O[C@@H]3CCN4CC=C(COC(=O)[C@@]1(C)O2)[C@H]34`, the Activity (Trichoderma viride) is reported as “inactive”, the LC50 [1] is reported as > 300 µg/mL and the Activity (Aspergillus niger) is reported as “inactive”. For the same compound, the Activity (Escherichia coli) was “inactive”.
